What all share (format): functional
Assay [1] concerns OVCAR-8. Description: In vitro anti-cancer activity against OVCAR 8(Ovarian) human tumor cell lines.
The subject of assay [2] is SF-268. The experiment in a line: In vitro anti-cancer activity against SF 268(CNS) human tumor cell lines.
For a further assay, the system named is UACC-62. The experiment in a line: In vitro anti-cancer activity against UACC 62(Melanoma) human tumor cell line.
Assay [3] relates to NCI/ADR-RES. Description: In vitro anti-cancer activity against MCF-7/ADR (Breast) human tumor cell lines.
The subject of another assay is DU-145. The experiment in a line: In vitro anti-cancer activity against DU-145 (Prostate) human tumor cell line.
Another assay has as its system ACHN. The experiment in a line: In vitro anti-cancer activity against ACHN(Renal) human tumor cell line.
In another assay the test system is HOP-62. Description: In vitro anti-cancer activity against HOP 62(Lung) human tumor cell line.
Assay [4] has as its system SF-268. Description: In vitro anti-cancer activity against SF 268(CNS) human tumor cell line.
Assay [5] relates to OVCAR-8. Description: In vitro anti-cancer activity against OVCAR 8(Ovarian) human tumor cell line.
Assay [6] concerns NCI/ADR-RES. The experiment in a line: In vitro anti-cancer activity against MCF-7/ADR (Breast) human tumor cell line.

As to `CC[C@@]1(O)C(=O)OCc2c1cc1n(c2=O)C(CC(=O)OC)c2cc3ccccc3nc2-1` (stereo not given in full), the concentration for 50% growth inhibition (GI50) with OVCAR-8 [1] was determined as 16.3 µM; in the assay on SF-268 [2], 18.6 µM; in the assay on UACC-62, 6.44 µM; in the assay with NCI/ADR-RES [3], 7.2 µM; in the assay on DU-145, 15.5 µM; in the assay on ACHN it was 5.29 µM.
Regarding `CC[C@@]1(O)C(=O)OCc2c1cc1n(c2=O)C(CC(=O)OCCO)c2cc3ccccc3nc2-1` (stereo not given in full), the 50% growth inhibitory concentration (GI50) in the assay on OVCAR-8 [1] stood at 0.25 µM; in the assay on SF-268 [2] it was 1 µM; in the assay with UACC-62 it was 0.2 µM; in the assay on NCI/ADR-RES [3], 6 µM; in the assay with DU-145 it was 1 µM; with ACHN, 10 µM. In addition, the concentration for 50% growth inhibition (GI50) in the assay on HOP-62 is greater than 30 µM.
Regarding `CC[C@@]1(O)C(=O)OCc2c1cc1n(c2=O)C(CC(C)=O)c2cc3cc([N+](=O)[O-])ccc3nc2-1` (stereo not given in full), the 50% growth inhibitory concentration (GI50) with OVCAR-8 [1] came out at 1.12 µM; in the assay with SF-268 [2] it was 0.14 µM; in the assay on UACC-62, 0.3 µM; with NCI/ADR-RES [3], 0.5 µM; in the assay on DU-145 it was 0.28 µM; in the assay on ACHN, 0.17 µM. In addition, the GI50 in the assay with HOP-62 was 0.13 µM.
`CC[C@@]1(O)C(=O)OCc2c1cc1n(c2=O)C(CC(N)=O)c2cc3ccccc3nc2-1` (stereo not given in full): the GI50 with OVCAR-8 [1] is 20 µM; in the assay on SF-268 [2] it was 29 µM; with UACC-62, 16 µM; with DU-145, 12 µM; in the assay on ACHN, 16 µM; with HOP-62, greater than 30 µM.
In the case of `CC[C@@]1(O)C(=O)OCc2c1cc1n(c2=O)Cc2cc3c(CN(C)C)c(O)ccc3nc2-1` [TOPOTECAN], the concentration for 50% growth inhibition (GI50) in the assay on SF-268 [4] stood at 0.08 µM; in the assay on UACC-62 it was 0.03 µM; with DU-145, 0.04 µM; in the assay with OVCAR-8 [5] it was 0.2 µM; in the assay with ACHN, 0.04 µM; in the assay on HOP-62, 0.05 µM. Also, the GI50 with NCI/ADR-RES [6] was found to be 0.07 µM.
Take `CC[C@@]1(O)C(=O)OCc2c1cc1n(c2=O)C(CC(=O)OCC(F)(F)F)c2cc3ccccc3nc2-1` (stereo not given in full): the GI50 was 1.12 µM in the assay with OVCAR-8 [1]; 0.14 µM with SF-268 [2]; 0.3 µM in the assay with UACC-62; 0.5 µM in the assay on NCI/ADR-RES [3]; 0.28 µM with DU-145; 0.17 µM in the assay on ACHN. The compound further showed a GI50 with HOP-62 of 0.13 µM.
As for `CC[C@@]1(O)C(=O)OCc2c1cc1n(c2=O)C(CC(=O)OCCF)c2cc3ccccc3nc2-1` (stereo not given in full), the GI50 with OVCAR-8 [1] is 0.04 µM; with SF-268 [2], 0.05 µM; with UACC-62 it was 0.2 µM; in the assay on NCI/ADR-RES [3], 6 µM; in the assay with DU-145, 0.1 µM; with ACHN it was 0.08 µM. Moreover, the GI50 in the assay on HOP-62 is greater than 30 µM.
Consider `CC[C@@]1(O)C(=O)OCc2c1cc1n(c2=O)C(CC(=O)OC)c2cc3cc([N+](=O)[O-])ccc3nc2-1` (stereo not given in full), for which the GI50 with OVCAR-8 [1] amounted to 12.6 µM; in the assay with SF-268 [2] it was 26.2 µM; in the assay with UACC-62, 4.04 µM; in the assay on DU-145, 8.51 µM; with ACHN, 4.61 µM; in the assay with HOP-62, 5.25 µM.
Take `CC[C@@]1(O)C(=O)OCc2c1cc1n(c2=O)C(CC(C)=O)c2cc3c(O)cccc3nc2-1` (stereo not given in full): the GI50 stood at 3.5 µM in the assay on OVCAR-8 [1]; 4 µM in the assay with SF-268 [2]; 7.5 µM in the assay on UACC-62; 5 µM in the assay with NCI/ADR-RES [3]; 2 µM with DU-145; 1 µM in the assay on ACHN. The GI50 in the assay on HOP-62 worked out at 4 µM.
For `CC[C@@]1(O)C(=O)OCc2c1cc1n(c2=O)C(CC(=O)OC)c2cc3c(O)cccc3nc2-1` (stereo not given in full), the 50% growth inhibitory concentration (GI50) in the assay with OVCAR-8 [1] is 1.72 µM; in the assay on SF-268 [2], 2.32 µM; in the assay on UACC-62 it was 1.72 µM; in the assay with DU-145 it was 0.6 µM; with ACHN, 0.44 µM; in the assay with HOP-62, 2.09 µM.
Regarding `CC[C@@]1(O)C(=O)OCc2c1cc1n(c2=O)C(CC(C)=O)c2cc3ccccc3nc2-1` (stereo not given in full), the 50% growth inhibitory concentration (GI50) came out at 7.39 µM in the assay on OVCAR-8 [1]; 7.15 µM with SF-268 [2]; 3.54 µM in the assay on UACC-62; 3.88 µM in the assay on NCI/ADR-RES [3]; 3.92 µM in the assay on DU-145; 3.03 µM in the assay on ACHN.
With `CC[C@@]1(O)C(=O)OCc2c1cc1n(c2=O)C(CC(=O)N2CCCC2)c2cc3ccccc3nc2-1` (stereo not given in full), the concentration for 50% growth inhibition (GI50) in the assay with OVCAR-8 [1] is 0.76 µM; in the assay with UACC-62 it was 0.41 µM; with NCI/ADR-RES [3], 0.79 µM; with DU-145, 0.45 µM; in the assay with ACHN it was 0.21 µM; in the assay with HOP-62, 0.29 µM.
Turning to `CC[C@@]1(O)C(=O)OCc2c1cc1n(c2=O)C(CC(=O)N2CCCCC2)c2cc3ccccc3nc2-1` (stereo not given in full), the GI50 worked out at 3.57 µM in the assay on OVCAR-8 [1]; 0.65 µM with SF-268 [2]; 0.33 µM in the assay with UACC-62; 3.03 µM with NCI/ADR-RES [3]; 0.32 µM in the assay on DU-145; 0.34 µM in the assay on ACHN. Besides, halving of growth with HOP-62 (GI50) required 0.53 µM.

A word on the GI50: it is the concentration giving 50% growth inhibition. A high value points to less potent growth inhibition.

Source of the values: ChEMBL document CHEMBL1131745, “Novel C-ring analogues of 20(S)-camptothecin-part-2: synthesis and in vitro cytotoxicity of 5-C-substituted 20(S)-camptothecin analogues” (1999).
